From article PMC5845353, “The selective cathepsin K inhibitor MIV-711 attenuates joint pathology in experimental animal models of osteoarthritis” (Journal of Translational Medicine, 2018)

Assays:
plasma proteins = test: Fraction bound to plasma proteins, human; format: in vitro ADME
dog cathepsin K enzyme = conditions: read-out: Ki against dog cathepsin K enzyme; cited from earlier work
[1] = Plasma concentrations of MIV-711 in ACLT rabbits (LC-MS/MS); format: in vivo; conditions: rabbit plasma
Description: (§1) Starting 1 week after sham operation or ACLT, animals were dosed daily for 7 weeks by oral gavage with either MIV-711 (synthesized by Medivir and given as a suspension in 1% Methocel A4C in water) or vehicle (1% Methocel A4C in water) at a dose volume of 4 mL/kg. The four treatment groups (n = 7 in each group) were: (1) sham + vehicle; (2) ACLT + vehicle; (3) ACLT + MIV-711, 30 µmol/kg (low dose) and (4) ACLT + MIV-711, 100 µmol/kg (high dose).
Twelve blood samples of 1 mL each were collected from each animal for determination of MIV-711 concentrations in a staggered manner to cover as many time points as possible. The blood samples were collected on Day 1, Day 10 and during Week 4 and Week 7. The samples were collected in EDTA coated tubes and kept on ice. The plasma was separated by centrifugation (2000g for 3–5 min at 4 °C) and then frozen and kept at − 70 °C until analysis.
To measure MIV-711 concentrations, 10–50 µL of plasma or synovial fluid was mixed with 30–150 µL of acetonitrile, samples were centrifuged (10 min, 20,000g, 7 °C) and 5 µL of the supernatant was injected onto the LC–MS/MS system. The lower limit of quantification (LLOQ) was 1 nmol/L.

[2] = system: rabbits subjected to anterior cruciate ligament transection (ACLT); test: Rabbit ACLT study, contrast-enhanced µCT of articular cartilage; format: in vivo
Source text: The animals were acquired following review and approval by the Institutional Animal Care and Use Committee (IACUC) at Numira (Salt Lake City, UT). The protocol was also reviewed and approved by the IACUC at Ibex Preclinical Research Inc. (Logan, UT). Male, New Zealand White rabbits (n = 32) were purchased from the Western Oregon Rabbit Co. (Philomath, OR). The animals were approximately 9 months old, weighed 3.7–4.5 kg at the start of the experiment and were randomized into four treatment groups based on body weight.
Pre-operative butorphanol (0.5–1.0 mg/kg, i.m.) for analgesia and glycopyrrolate (~ 0.1 mg/kg i.m.) were administered up to 15 min prior to induction. Anesthesia was induced by a mixture of ketamine (20–40 mg/kg, i.m.) and xylazine (5–10 mg/kg, i.m.), followed by placement of an endotracheal tube. General anesthesia was maintained with isoflurane. Perioperative cefazolin (40 mg/kg, i.v.) was administered, and […] (0.2 mg/kg, i.v.) was administered to reverse the effects of xylazine after endotracheal intubation was complete. A fentanyl patch (25 µg/h) was placed on a clipped area of the skin to provide post-operative analgesia. An incision of 1.5–2.5 cm was made in the skin over the medial side of the right knee under aseptic conditions. The patella was dislocated laterally and the knee placed in full flexion. The anterior cruciate ligament (ACL) was visualized and transected with an appropriate blade. In sham animals, the ACL was visualized but not transected. The joint was irrigated with sterile saline and closed. The muscle and skin were closed with suture and/or surgical glue. Butorphanol (0.5–1 mg/kg, i.m.) was administered after extubation to provide supplemental analgesia. The animals were then individually housed in stainless steel or plastic cages.
as §1
Femora and tibias from all animals were subjected to µCT scanning without and with contrast reagent, to visualize bone and cartilage, respectively. Samples were scanned on a high-resolution, volumetric µCT scanner (μCT40, ScanCo Medical, Zurich, CH). The image data was acquired with the following parameters: 36 μm isotropic voxel resolution at 300 ms exposure time, 2000 views and 1 frame per view. Each sample was scanned twice, once for acquiring bone data and once for soft tissue data. After the bone scans, the knees were stained using hexabrix for contrast-enhanced imaging of the cartilage. The µCT-generated DICOM files were used to analyze the samples and to create volume renderings of the regions of interest (ROI). The raw data files were converted into a file format compatible with the segmentation software VHLab (Numira). VHLab was used for segmenting out the regions of interest (osteophyte, cartilage, and subchondral bone) for the femur and tibia of each sample. A region spanning 9 mm of the articulating surface of the femur and 6.5 mm of the tibia was selected for segmenting out the cartilage and subchondral bone in the anterior–posterior direction. After the segmentation process, the voxel count associated with each of the regions of interest was calculated using VHLab. The voxel count was then multiplied by the cubic voxel resolution to obtain volume measurements for the different ROI. Cartilage thickness was calculated using SCIRun (Scientific Computing and Imaging Institute, University of Utah). The distance from the bone to the outer surface of the articulating cartilage was calculated. An image was generated that translates the distances into a color map for viewing the thickness along the length of the cartilage. […]

[3] = system: dogs subjected to partial medial meniscectomy; test: Dog partial medial meniscectomy study, cartilage area image analysis; format: in vivo
Description: In order to quantitate and compare the cartilage matrix preservation, cartilage area measurements were taken from the most severely affected section of each animal. In this section, the most severely affected area - generally zone 2 - is analyzed at 25x magnification. Photomicrographs were taken with a digital microscope camera, and analyzed with appropriate software. The following measurements were taken:
Total area from the tidemark to the surface (or projected surface in degenerated areas), extending from the axial to abaxial aspects of the medial tibial plateau zones in the most severely affected area (generally zone 2)
Area of non-viable matrix (cartilage with less than 50% chondrocytes, proteoglycan, and intact collagen) and no matrix within the total area of zone 2 or most severely affected area in the photomicrograph
Area of no matrix within the total area being analyzed
The area of non-viable matrix in zone under analysis was subtracted from the total area in the photomicrograph to get the area of viable matrix in this area, and the area of no matrix was subtracted from the total area to get the area of any matrix (collagen matrix with or without chondrocytes and proteoglycan). These two values were then compared back to the total area to derive the % viable area and the % any matrix in this area of greatest lesion severity, which were compared between groups.

[4] = single oral administration 30 µmol/kg
[5] = single oral administration 100 µmol/kg
[6] = individual animals of MIV-711 group, per section level (first line of animal, L2, L3)

C#C[C@@H]1CN(C(=O)[C@H](CC(C)C)NC(=O)c2ccc(-c3nc(N4CCN(C)CC4)sc3F)cc2)[C@@H]2C(=O)CO[C@H]12 [MIV-711]
fraction bound to plasma proteins (plasma proteins): 94%
Ki (dog cathepsin K enzyme): 1.5 nM
AUC0–24 h [1, 4]: 0.78 µM·h
Cmax [1, 4]: 250 nM
AUC0–24 h [1, 5]: 7.0 µM·h
Cmax [1, 5]: 1800 nM
Cartilage Thickness, Lateral ([2]; Femur, high dose 100 µmol/kg): 251 ± 12 µm
Cartilage Thickness, Medial ([2]; Femur, high dose 100 µmol/kg): 306 ± 12 µm
Cartilage Thickness, Total ([2]; Femur, high dose 100 µmol/kg): 278 ± 11 µm
Cartilage Volume, Lateral ([2]; Femur, high dose 100 µmol/kg): 23.0 ± 1.1 mm^3
Cartilage Volume, Medial ([2]; Femur, high dose 100 µmol/kg): 27.2 ± 1.6 mm^3
Cartilage Volume, Total ([2]; Femur, high dose 100 µmol/kg): 50.2 ± 2.2 mm^3
Cartilage Thickness, Lateral ([2]; Femur, low dose 30 µmol/kg): 257 ± 13 µm
Cartilage Thickness, Medial ([2]; Femur, low dose 30 µmol/kg): 310 ± 18 µm
Cartilage Thickness, Total ([2]; Femur, low dose 30 µmol/kg): 283 ± 15 µm
Cartilage Volume, Lateral ([2]; Femur, low dose 30 µmol/kg): 23.1 ± 1.1 mm^3
Cartilage Volume, Medial ([2]; Femur, low dose 30 µmol/kg): 27.5 ± 2.6 mm^3
Cartilage Volume, Total ([2]; Femur, low dose 30 µmol/kg): 50.6 ± 3.5 mm^3
Cartilage Thickness, Lateral ([2]; Tibia, high dose 100 µmol/kg): 369 ± 24 µm
Cartilage Thickness, Medial ([2]; Tibia, high dose 100 µmol/kg): 539 ± 25 µm
Cartilage Thickness, Total ([2]; Tibia, high dose 100 µmol/kg): 445 ± 22 µm
Cartilage Volume, Lateral ([2]; Tibia, high dose 100 µmol/kg): 21.6 ± 2.0 mm^3
Cartilage Volume, Medial ([2]; Tibia, high dose 100 µmol/kg): 25.3 ± 1.2 mm^3
Cartilage Volume, Total ([2]; Tibia, high dose 100 µmol/kg): 46.9 ± 3.1 mm^3
Cartilage Thickness, Lateral ([2]; Tibia, low dose 30 µmol/kg): 349 ± 18 µm
Cartilage Thickness, Medial ([2]; Tibia, low dose 30 µmol/kg): 533 ± 26 µm
Cartilage Thickness, Total ([2]; Tibia, low dose 30 µmol/kg): 432 ± 20 µm
Cartilage Volume, Lateral ([2]; Tibia, low dose 30 µmol/kg): 19.6 ± 1.3 mm^3
Cartilage Volume, Medial ([2]; Tibia, low dose 30 µmol/kg): 24.9 ± 1.5 mm^3
Cartilage Volume, Total ([2]; Tibia, low dose 30 µmol/kg): 44.5 ± 2.6 mm^3
Cartilage Area: % Any Matrix Area ([3]; group Mean): 96%
Cartilage Area: % Viable Area ([3]; group Mean): 88%
Cartilage Area: % Any Matrix Area [3, 6]: 100%
Cartilage Area: % Viable Area [3, 6]: 100%
Percent Inhibition, % Any Matrix Area ([3]; versus Vehicle): -11%
Percent Inhibition, % Viable Area ([3]; versus Vehicle): 8%
